We go through ten molecules from ChEMBL document CHEMBL1201862, “PubChem BioAssay data set” (2004).

Some test systems named below: DLD-1; EKVX; HCC 2998; HCT-15; Malme-3M; NCI-H23; NCI-H522; OVCAR-3; RXF 393; SK-MEL-2; SK-MEL-5; SW-620; TK-10; U-251; HL-60; SR; BT-549; MDA-N; NCI/ADR-RES; T47D.
Test in all cases: DTP human tumour cell line panel, 48 h

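Growth conditions: 96-well plates. Treatment: test compound, 48 hours, 5 concentrations. Analysis: linear interpolation between bracketing concentrations; unreached endpoints set to highest concentration. Here, GI50 denotes the concentration required for 50% inhibition of growth.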 The source made the active and inactive calls. Rule as the data show it: active = GI50 up to about 1.1 µM and inactive = higher. Where only a bound is given, the exact number is not on record here.

With `Cc1ccc(NC(=O)CSc2nnc(Cc3ccccc3)o2)cc1`, the GI50 was > 100 µM (inactive) with DLD-1; > 100 µM (inactive) in the assay with EKVX; > 100 µM (inactive) with HCC 2998; > 100 µM in the assay on HCT-15; > 100 µM (inactive) with Malme-3M; > 100 µM (inactive) in the assay on NCI-H23. Also, the GI50 in the assay on NCI-H522, with OVCAR-3, in the assay on RXF 393, in the assay on SK-MEL-2, in the assay on SK-MEL-5 and in the assay with SW-620 was > 100 µM (inactive) in each case. The GI50 in the assay on TK-10 and with U-251 was > 100 µM (inactive) throughout.
For the molecule `Cc1ccc(S(=O)(=O)NC(C)C(=O)O)cc1` (stereo not given), the GI50 in the assay with DLD-1 was > 100 µM (inactive); in the assay on EKVX, > 100 µM (inactive); with HCC 2998, > 100 µM (inactive); in the assay on HCT-15 it was > 100 µM; in the assay on HL-60, > 100 µM (inactive); with Malme-3M it was > 100 µM (inactive). For the same molecule, the GI50 in the assay on NCI-H23, in the assay with NCI-H522, in the assay on OVCAR-3, with RXF 393, with SK-MEL-2 and with SK-MEL-5 was > 100 µM (inactive) each time. Also, the GI50 in the assay with SW-620, with TK-10 and with U-251 was > 100 µM (inactive) in each case.
On to `COc1cc2ccc3c4cc(OC)c(OCc5ccccc5)cc4cnc3c2cc1OC`, for which the GI50 with DLD-1, in the assay with EKVX, in the assay on HCC 2998, in the assay with Malme-3M, in the assay with NCI-H23 and in the assay with NCI-H522 was > 100 µM (inactive) each time. The GI50 in the assay on OVCAR-3, in the assay with SK-MEL-2, in the assay on SK-MEL-5, with SW-620, in the assay with TK-10 and in the assay with U-251 was > 100 µM (inactive) in each case.
For the molecule `Cn1c(O)c(C(=O)NC2CCCCC2)c(=O)n(C)c1=S`, the GI50 in the assay with DLD-1 was 4.93 µM (inactive); with HCT-15 it was 5.02 µM; in the assay on NCI-H23, 4.4 µM (inactive); in the assay with NCI-H522, 3.58 µM (inactive); in the assay on OVCAR-3, 4.93 µM (inactive); in the assay with SK-MEL-2, 5.11 µM (inactive). For the same molecule, the GI50 in the assay with SK-MEL-5 was 5.05 µM (inactive); in the assay on SR it was 17.9 µM (inactive); in the assay with SW-620, 5.79 µM (inactive); in the assay with TK-10, 6.32 µM (inactive); in the assay with U-251, 4.51 µM (inactive).
In the case of `CCc1cccc(CC)c1NC(=O)C1=CNC(C)=C(C(=O)Nc2c(CC)cccc2CC)C1c1ccc(O)c(OC)c1` (stereo not given), the GI50 is 47 µM (inactive) in the assay on DLD-1; 35.2 µM (inactive) with EKVX; 47.4 µM (inactive) with HCC 2998; 26.5 µM (inactive) in the assay with HL-60; 28.1 µM (inactive) with Malme-3M; 36.6 µM (inactive) in the assay on NCI-H23. Moreover, the GI50 in the assay with NCI-H522 is 26.4 µM (inactive); in the assay with OVCAR-3, 19 µM (inactive); in the assay on RXF 393, 25.3 µM (inactive); with SK-MEL-2 it was 26.2 µM (inactive); in the assay on SK-MEL-5, 32.3 µM (inactive); with SW-620, 30.3 µM (inactive). The GI50 was 47.6 µM (inactive) in the assay with TK-10 and 12.4 µM (inactive) in the assay on U-251.
As to `O=C1CC(c2c(-c3ccccc3)[nH]c3ccccc23)C(=O)N1` (stereo not given), the GI50 was > 100 µM (inactive) in the assay on DLD-1; > 100 µM (inactive) in the assay with EKVX; > 100 µM (inactive) in the assay with HCC 2998; > 100 µM with HCT-15; > 100 µM (inactive) in the assay on HL-60; > 100 µM (inactive) in the assay with Malme-3M. Further, the GI50 with NCI-H23, with OVCAR-3, with RXF 393, in the assay with SK-MEL-2, with SK-MEL-5 and with SW-620 was > 100 µM (inactive) in each case. For the same molecule, the GI50 in the assay on TK-10 and in the assay on U-251 was > 100 µM (inactive) in each case.
For the molecule `Nc1ccc(-c2cc(C(=O)Nc3nccs3)nc(S)n2)cc1`, the GI50 in the assay with DLD-1 was > 100 µM (inactive); with EKVX, > 100 µM (inactive); in the assay with HCT-15, > 100 µM; in the assay on Malme-3M it was > 100 µM (inactive); with NCI-H23, > 100 µM (inactive); with NCI-H522 it was > 100 µM (inactive). Also, the GI50 in the assay on OVCAR-3, in the assay with RXF 393, with SK-MEL-2, with SK-MEL-5, in the assay with SW-620 and in the assay with TK-10 was > 100 µM (inactive) throughout. In addition, in the assay on U-251, the GI50 is > 100 µM (inactive).
As for `CC(C)Oc1cccc(N2C(NCc3c[nH]c4ccccc34)=Nc3ccncc3S2(=O)=O)c1`, the GI50 is 34.8 µM (inactive) with BT-549; 23.1 µM (inactive) in the assay with EKVX; 25.5 µM (inactive) in the assay with HCC 2998; 22.5 µM with HCT-15; 21.5 µM (inactive) with HL-60; 31.6 µM (inactive) in the assay on MDA-N. In addition, the GI50 with Malme-3M is 20.5 µM (inactive); with NCI-H23 it was 22.8 µM (inactive); in the assay on NCI-H522 it was 17.4 µM (inactive); in the assay with NCI/ADR-RES, 19.7 µM (inactive); with OVCAR-3, 12.9 µM (inactive); in the assay with RXF 393 it was 40.3 µM (inactive). Also, the GI50 in the assay on SK-MEL-2 was 18.6 µM (inactive); in the assay with SK-MEL-5 it was 13.9 µM (inactive); in the assay on SR it was 28.8 µM (inactive); in the assay with SW-620, 33.7 µM (inactive); with T47D, 5.47 µM (inactive); in the assay with TK-10, 25.2 µM (inactive). In addition, the GI50 in the assay with U-251 was 29.4 µM (inactive).
As to `CCCCCCCCOc1ccc(/C=C/C2=[N+](CCO)CCO2)cc1`, the GI50 is 3.44 µM (inactive) in the assay on BT-549; 3.94 µM (inactive) with EKVX; 3.47 µM (inactive) in the assay with HCC 2998; 12.1 µM in the assay on HCT-15; 2.62 µM (inactive) with HL-60; 3.56 µM (inactive) in the assay with MDA-N. Also, the GI50 was 3.04 µM (inactive) in the assay on Malme-3M; 2.23 µM (inactive) in the assay on NCI-H23; 2.02 µM (inactive) with NCI-H522; 12.6 µM (inactive) with NCI/ADR-RES; 3.15 µM (inactive) with OVCAR-3; 1.8 µM (inactive) in the assay with RXF 393. The GI50 was 2.3 µM (inactive) in the assay with SK-MEL-2; 2.56 µM (inactive) in the assay on SK-MEL-5; 2.19 µM (inactive) in the assay on SR; 2.43 µM (inactive) in the assay with SW-620; 3.35 µM (inactive) in the assay with T47D; 3.36 µM (inactive) in the assay with TK-10. Besides, the GI50 in the assay on U-251 was 2.86 µM (inactive).
In the case of `Cn1c(N)[n+](C(=O)OCc2ccccc2)c(=O)c2c1ncn2C(=O)OCc1ccccc1`, the GI50 is 95.1 µM (inactive) with DLD-1; 89.5 µM (inactive) in the assay with EKVX; > 100 µM (inactive) with HCC 2998; > 100 µM in the assay with HCT-15; > 100 µM (inactive) with HL-60; > 100 µM (inactive) in the assay with Malme-3M. Besides, the GI50 is 46.2 µM (inactive) with NCI-H23; 30.9 µM (inactive) in the assay with NCI-H522; > 100 µM (inactive) in the assay on OVCAR-3; > 100 µM (inactive) with SK-MEL-2; > 100 µM (inactive) with SK-MEL-5; > 100 µM (inactive) in the assay with SW-620. For the same molecule, the GI50 is 46.7 µM (inactive) in the assay on TK-10 and 9.82 µM (inactive) with U-251.
